Data reported in patent publication US10870647B2, “Imidazopyridine derivative, method for preparing same, and pharmaceutical composition containing same as active ingredient for preventing or treating cancer” (DAEGU-GYEONGBUK MEDICAL INNOVATION FOUNDATION, priority 2016, dated 2020).

Columns and labels:
Assay in all cases: Kinase selectivity, scanMAX Kinase assay panel (DiscoverX), % control at 1 uM
Assay type in all cases: binding
[1] = target: T1, scanMAX Kinase assay panel (Homo sapiens, UniProt O14965); details: AURKA; 1 uM; read-out: Percent Control (%)
T1 construct: purchased DiscoverX
T1 sequence (O14965 1-403): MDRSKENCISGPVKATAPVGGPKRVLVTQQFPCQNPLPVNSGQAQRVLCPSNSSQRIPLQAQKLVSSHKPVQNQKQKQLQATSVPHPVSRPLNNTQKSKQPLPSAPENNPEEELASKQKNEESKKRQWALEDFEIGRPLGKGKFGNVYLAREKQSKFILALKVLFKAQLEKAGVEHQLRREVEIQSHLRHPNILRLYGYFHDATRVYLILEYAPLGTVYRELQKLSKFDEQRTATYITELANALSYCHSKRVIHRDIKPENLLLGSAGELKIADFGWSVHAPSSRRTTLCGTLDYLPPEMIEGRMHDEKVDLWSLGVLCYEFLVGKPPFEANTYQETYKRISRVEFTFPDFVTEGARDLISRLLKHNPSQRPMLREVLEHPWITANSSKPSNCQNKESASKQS
Procedure, shortened: (§1)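 Binding across the scanMAX kinase panel was tested at 1 uM compound. % control = (compound − positive control)/(negative control − positive control) × 100; below 35 counted as active.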

[2] = target: T2, scanMAX Kinase assay panel (Homo sapiens, UniProt P06213); details: INSR; 1 uM; read-out: Percent Control (%)
T2 construct: purchased DiscoverX
T2 sequence (P06213 28-1382): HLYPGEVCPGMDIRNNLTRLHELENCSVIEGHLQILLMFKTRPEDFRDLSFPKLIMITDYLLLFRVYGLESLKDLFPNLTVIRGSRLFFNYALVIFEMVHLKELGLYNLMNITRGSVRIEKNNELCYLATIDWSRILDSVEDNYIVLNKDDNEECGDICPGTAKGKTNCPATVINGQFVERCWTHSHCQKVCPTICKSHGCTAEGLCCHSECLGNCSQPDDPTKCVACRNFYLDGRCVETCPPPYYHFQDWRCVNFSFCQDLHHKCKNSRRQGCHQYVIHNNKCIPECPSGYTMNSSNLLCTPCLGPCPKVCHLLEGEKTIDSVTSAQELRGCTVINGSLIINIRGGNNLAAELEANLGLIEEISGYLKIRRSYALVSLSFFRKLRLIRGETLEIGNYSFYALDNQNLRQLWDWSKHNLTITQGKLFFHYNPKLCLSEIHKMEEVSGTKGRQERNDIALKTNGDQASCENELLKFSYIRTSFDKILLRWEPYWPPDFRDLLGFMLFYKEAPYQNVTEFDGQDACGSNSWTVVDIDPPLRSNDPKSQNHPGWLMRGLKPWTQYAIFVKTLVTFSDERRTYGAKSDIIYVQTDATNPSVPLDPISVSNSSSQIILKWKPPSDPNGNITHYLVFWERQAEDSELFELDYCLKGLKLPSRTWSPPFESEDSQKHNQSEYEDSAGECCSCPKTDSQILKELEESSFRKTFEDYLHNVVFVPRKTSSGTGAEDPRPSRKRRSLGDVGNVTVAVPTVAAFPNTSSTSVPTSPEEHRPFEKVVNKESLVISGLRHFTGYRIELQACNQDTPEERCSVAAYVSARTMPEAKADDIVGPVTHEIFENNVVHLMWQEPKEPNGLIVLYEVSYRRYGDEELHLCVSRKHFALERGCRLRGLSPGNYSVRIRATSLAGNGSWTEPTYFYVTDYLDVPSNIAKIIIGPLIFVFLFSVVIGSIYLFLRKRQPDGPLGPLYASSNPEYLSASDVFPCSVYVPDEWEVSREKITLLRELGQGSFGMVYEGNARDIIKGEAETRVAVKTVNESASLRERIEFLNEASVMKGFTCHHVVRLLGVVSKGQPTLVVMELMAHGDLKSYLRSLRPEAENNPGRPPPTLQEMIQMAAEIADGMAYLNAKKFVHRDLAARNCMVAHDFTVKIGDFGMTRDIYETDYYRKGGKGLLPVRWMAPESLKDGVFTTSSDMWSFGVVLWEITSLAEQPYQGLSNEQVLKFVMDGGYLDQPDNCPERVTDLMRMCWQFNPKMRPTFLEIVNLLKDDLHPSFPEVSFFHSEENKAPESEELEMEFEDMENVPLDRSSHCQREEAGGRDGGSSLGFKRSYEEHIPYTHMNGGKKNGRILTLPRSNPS
Procedure, shortened: as §1

[3] = target: T3, scanMAX Kinase assay panel (Homo sapiens, UniProt P10721, V559D); details: KIT (V559D); 1 uM; read-out: Percent Control (%)
T3 construct: purchased DiscoverX
Procedure, shortened: as §1

[4] = target: T4, scanMAX Kinase assay panel (Homo sapiens, UniProt Q02779); details: MLK2; 1 uM; read-out: Percent Control (%)
T4 construct: purchased DiscoverX
Procedure, shortened: as §1

[5] = target: T5, scanMAX Kinase assay panel (Homo sapiens, UniProt Q08881); details: ITK; 1 uM; read-out: Percent Control (%)
T5 construct: purchased DiscoverX
T5 sequence (Q08881 1-620): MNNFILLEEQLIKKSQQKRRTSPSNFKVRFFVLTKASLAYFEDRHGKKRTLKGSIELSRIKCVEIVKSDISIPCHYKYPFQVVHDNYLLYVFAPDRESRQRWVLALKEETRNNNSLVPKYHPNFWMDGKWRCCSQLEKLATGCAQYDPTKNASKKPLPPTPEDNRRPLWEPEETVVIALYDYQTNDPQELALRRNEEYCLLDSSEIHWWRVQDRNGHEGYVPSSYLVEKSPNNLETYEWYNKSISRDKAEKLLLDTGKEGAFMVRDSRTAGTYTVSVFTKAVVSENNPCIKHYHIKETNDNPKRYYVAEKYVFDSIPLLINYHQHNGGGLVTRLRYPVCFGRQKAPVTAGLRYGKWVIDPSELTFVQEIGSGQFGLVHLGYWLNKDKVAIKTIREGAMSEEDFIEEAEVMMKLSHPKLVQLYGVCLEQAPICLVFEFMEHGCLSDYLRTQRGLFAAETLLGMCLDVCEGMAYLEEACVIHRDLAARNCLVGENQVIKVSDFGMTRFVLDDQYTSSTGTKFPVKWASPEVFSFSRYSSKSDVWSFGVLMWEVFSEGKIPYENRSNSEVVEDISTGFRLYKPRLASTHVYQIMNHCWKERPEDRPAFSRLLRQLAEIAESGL
Procedure, shortened: as §1

[6] = target: T6, scanMAX Kinase assay panel (Homo sapiens, UniProt Q86UX6); details: YANK3; 1 uM; read-out: Percent Control (%)
T6 construct: purchased DiscoverX
T6 sequence (Q86UX6 whole entry): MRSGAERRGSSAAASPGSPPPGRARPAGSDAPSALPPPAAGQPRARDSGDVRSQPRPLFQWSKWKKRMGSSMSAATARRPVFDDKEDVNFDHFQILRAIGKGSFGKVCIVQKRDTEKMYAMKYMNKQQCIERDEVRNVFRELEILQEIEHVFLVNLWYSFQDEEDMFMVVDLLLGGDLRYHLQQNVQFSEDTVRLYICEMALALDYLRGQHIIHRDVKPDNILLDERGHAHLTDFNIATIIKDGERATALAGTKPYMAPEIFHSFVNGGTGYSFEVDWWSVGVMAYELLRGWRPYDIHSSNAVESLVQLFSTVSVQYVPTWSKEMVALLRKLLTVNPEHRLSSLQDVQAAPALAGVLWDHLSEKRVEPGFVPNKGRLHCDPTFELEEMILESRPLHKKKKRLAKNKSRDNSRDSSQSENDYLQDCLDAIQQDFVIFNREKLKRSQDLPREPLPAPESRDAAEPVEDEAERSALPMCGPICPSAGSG
Procedure, shortened: as §1

[7] = target: T7, scanMAX Kinase assay panel (Homo sapiens, UniProt Q86Y07); details: VRK2; 1 uM; read-out: Percent Control (%)
T7 construct: purchased DiscoverX
T7 sequence (Q86Y07 whole entry): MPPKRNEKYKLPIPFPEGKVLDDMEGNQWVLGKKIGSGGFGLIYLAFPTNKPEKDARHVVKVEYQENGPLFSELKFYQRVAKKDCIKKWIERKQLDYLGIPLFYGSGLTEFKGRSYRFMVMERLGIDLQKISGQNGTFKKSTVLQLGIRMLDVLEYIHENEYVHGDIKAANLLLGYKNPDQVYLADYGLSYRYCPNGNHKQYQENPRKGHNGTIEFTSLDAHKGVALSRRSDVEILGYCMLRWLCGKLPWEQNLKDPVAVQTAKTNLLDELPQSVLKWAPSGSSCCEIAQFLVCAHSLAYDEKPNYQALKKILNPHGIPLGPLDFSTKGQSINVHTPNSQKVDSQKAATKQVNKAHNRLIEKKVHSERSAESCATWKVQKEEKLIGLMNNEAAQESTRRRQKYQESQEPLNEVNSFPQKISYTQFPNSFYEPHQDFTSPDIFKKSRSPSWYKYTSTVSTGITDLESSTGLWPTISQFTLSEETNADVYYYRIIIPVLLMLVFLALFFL
Procedure, shortened: as §1

[8] = target: T8, scanMAX Kinase assay panel (Homo sapiens, UniProt Q86Z02); details: HIPK1; 1 uM; read-out: Percent Control (%)
T8 construct: purchased DiscoverX
T8 sequence (Q86Z02 whole entry): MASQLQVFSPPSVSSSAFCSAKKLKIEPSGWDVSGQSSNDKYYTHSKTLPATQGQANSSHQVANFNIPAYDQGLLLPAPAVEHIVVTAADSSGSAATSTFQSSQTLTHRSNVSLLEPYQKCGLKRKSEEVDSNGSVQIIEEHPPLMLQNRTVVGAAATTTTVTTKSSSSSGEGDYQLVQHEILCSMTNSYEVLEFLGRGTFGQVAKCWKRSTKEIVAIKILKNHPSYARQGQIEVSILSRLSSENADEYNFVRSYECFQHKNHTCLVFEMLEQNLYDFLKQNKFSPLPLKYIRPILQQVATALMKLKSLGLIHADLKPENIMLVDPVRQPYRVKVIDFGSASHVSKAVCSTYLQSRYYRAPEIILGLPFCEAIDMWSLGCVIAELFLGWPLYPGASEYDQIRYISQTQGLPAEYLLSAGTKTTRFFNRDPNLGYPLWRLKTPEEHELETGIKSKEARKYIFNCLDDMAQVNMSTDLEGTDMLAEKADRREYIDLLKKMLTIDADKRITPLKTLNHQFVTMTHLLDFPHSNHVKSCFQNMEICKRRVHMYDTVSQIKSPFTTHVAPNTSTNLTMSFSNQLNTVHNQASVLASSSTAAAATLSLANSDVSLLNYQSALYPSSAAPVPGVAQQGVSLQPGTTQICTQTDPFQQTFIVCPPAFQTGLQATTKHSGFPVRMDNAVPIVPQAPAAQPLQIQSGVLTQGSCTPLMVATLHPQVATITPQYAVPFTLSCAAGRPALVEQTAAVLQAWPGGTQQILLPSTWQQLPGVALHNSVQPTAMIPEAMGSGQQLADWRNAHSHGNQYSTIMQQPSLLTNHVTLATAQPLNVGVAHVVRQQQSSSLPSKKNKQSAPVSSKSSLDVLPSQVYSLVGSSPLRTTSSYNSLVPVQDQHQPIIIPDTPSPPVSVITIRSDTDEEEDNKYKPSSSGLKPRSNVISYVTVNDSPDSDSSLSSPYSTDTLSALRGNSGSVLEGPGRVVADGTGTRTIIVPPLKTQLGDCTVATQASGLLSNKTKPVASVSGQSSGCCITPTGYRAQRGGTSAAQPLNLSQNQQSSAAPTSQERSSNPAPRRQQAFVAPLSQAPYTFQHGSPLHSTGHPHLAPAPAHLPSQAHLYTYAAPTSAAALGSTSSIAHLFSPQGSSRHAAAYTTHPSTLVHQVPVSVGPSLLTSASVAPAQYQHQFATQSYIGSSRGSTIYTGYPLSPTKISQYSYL
Procedure, shortened: as §1

[9] = target: T9, scanMAX Kinase assay panel (Homo sapiens, UniProt Q99640); details: PKMYT1; 1 uM; read-out: Percent Control (%)
T9 construct: purchased DiscoverX
T9 sequence (Q99640 1-499): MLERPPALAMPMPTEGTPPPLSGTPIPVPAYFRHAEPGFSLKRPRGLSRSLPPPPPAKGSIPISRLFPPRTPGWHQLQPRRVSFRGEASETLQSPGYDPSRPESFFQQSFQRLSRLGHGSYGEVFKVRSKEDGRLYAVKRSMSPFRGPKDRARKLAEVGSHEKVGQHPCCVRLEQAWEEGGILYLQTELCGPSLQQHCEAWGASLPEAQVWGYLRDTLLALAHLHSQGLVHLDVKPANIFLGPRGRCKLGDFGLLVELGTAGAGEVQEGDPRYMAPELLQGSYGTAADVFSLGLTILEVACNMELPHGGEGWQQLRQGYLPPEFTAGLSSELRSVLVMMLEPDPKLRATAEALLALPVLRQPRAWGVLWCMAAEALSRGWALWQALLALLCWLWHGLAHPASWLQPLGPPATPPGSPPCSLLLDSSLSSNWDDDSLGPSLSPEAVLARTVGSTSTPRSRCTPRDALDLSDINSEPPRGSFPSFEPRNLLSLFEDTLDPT
Procedure, shortened: as §1

[10] = target: T10, scanMAX Kinase assay panel (Homo sapiens, UniProt Q9UBF8); details: PIK4CB; 1 uM; read-out: Percent Control (%)
T10 construct: purchased DiscoverX
Procedure, shortened: as §1

[11] = target: T11, scanMAX Kinase assay panel (Homo sapiens, UniProt Q9Y2H9); details: MAST1; 1 uM; read-out: Percent Control (%)
T11 construct: purchased DiscoverX
T11 sequence (Q9Y2H9 whole entry): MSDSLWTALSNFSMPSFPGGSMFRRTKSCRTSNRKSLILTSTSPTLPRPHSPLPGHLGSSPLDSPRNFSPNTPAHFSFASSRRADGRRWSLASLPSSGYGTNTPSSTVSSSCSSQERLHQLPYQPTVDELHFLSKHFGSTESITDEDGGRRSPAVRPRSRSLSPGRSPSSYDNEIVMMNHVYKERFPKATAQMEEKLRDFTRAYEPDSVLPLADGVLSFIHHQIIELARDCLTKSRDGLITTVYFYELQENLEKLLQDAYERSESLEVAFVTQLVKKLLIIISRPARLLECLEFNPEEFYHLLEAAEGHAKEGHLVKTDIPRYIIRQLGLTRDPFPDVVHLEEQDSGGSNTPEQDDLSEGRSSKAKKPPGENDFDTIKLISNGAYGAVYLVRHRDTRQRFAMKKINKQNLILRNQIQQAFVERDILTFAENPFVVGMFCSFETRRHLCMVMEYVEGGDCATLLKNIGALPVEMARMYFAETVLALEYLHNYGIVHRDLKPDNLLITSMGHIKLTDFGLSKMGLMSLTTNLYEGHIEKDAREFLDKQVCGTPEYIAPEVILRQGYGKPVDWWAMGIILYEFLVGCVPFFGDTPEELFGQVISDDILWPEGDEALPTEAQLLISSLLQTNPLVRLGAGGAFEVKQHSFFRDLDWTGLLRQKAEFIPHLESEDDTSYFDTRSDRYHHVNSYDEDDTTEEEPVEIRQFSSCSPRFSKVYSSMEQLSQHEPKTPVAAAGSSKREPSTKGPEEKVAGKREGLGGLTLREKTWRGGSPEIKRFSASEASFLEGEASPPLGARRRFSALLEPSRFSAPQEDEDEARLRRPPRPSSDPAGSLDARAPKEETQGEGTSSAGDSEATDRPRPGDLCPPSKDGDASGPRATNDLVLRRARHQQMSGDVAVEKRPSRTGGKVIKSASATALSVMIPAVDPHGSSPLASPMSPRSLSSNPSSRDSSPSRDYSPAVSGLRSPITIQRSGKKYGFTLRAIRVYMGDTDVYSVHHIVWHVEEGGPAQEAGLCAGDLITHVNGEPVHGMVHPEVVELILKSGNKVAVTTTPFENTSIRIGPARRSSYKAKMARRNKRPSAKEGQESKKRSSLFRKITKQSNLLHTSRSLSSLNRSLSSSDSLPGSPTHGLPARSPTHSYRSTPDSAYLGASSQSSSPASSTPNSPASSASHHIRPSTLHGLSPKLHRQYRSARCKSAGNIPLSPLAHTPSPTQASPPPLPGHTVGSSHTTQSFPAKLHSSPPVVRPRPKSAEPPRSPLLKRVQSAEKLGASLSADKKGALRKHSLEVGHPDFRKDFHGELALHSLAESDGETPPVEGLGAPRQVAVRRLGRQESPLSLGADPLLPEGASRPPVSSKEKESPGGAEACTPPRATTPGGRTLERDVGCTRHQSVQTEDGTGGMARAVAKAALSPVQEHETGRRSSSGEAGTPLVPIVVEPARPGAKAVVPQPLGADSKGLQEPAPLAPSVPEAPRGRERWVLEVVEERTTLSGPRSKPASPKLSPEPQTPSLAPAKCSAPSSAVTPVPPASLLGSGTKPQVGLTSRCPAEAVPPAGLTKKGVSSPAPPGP
Procedure, shortened: as §1

Cc1ccc(NC(=O)C2(C(=O)Nc3ccc(F)cc3)CC2)cc1C#Cc1cnc2c(Nc3cnn(C(C)C)c3)cccn12 [Example 78]
remaining binding at 1 µM [1]: 100%
remaining binding at 1 µM [2]: 100%
remaining binding at 1 µM [3]: 0%
remaining binding at 1 µM [4]: 94%
remaining binding at 1 µM [5]: 97%
remaining binding at 1 µM [6]: 99%
remaining binding at 1 µM [7]: 100%
remaining binding at 1 µM [8]: 91%
remaining binding at 1 µM [9]: 90%
remaining binding at 1 µM [10]: 99%
remaining binding at 1 µM [11]: 82%

Cc1cn(-c2cc(NC(=O)c3ccc(C)c(C#Cc4cnc5c(Nc6cnn(C)c6)cccn45)c3)cc(C(F)(F)F)c2)cn1 [Example 12, 4-methyl-N-(3-(4-methyl-1H-imidazol-1-yl)-5-(trifluoromethyl)phenyl)-3-((8-((1-methyl-1H-pyrazol-4-yl)amino)imidazo[1,2-a]pyridin-3-yl)ethynyl)benzamide]
remaining binding at 1 µM [1]: 100%
remaining binding at 1 µM [2]: 99%
remaining binding at 1 µM [3]: 1%
remaining binding at 1 µM [4]: 48%
remaining binding at 1 µM [5]: 69%
remaining binding at 1 µM [6]: 81%
remaining binding at 1 µM [7]: 100%
remaining binding at 1 µM [8]: 71%
remaining binding at 1 µM [9]: 98%
remaining binding at 1 µM [10]: 100%
remaining binding at 1 µM [11]: 56%

Cc1ccc(C(=O)Nc2ccc(CN3CCN(C)CC3)c(C(F)(F)F)c2)cc1C#Cc1cnc2c(Nc3cnn(C)c3)cccn12 [Example 1, 4-methyl-3-((8-((1-methyl-1H-pyrazol-4-yl)amino)imidazo[1,2-a]pyridin-3-yl)ethynyl)-N-(4-((4-methylpiperazin-1-yl)methyl)-3-(trifluoromethyl)phenyl)benzamide]
remaining binding at 1 µM [1]: 72%
remaining binding at 1 µM [2]: 54%
remaining binding at 1 µM [3]: 0%
remaining binding at 1 µM [4]: 29%
remaining binding at 1 µM [5]: 0%
remaining binding at 1 µM [6]: 74%
remaining binding at 1 µM [7]: 86%
remaining binding at 1 µM [8]: 51%
remaining binding at 1 µM [9]: 93%
remaining binding at 1 µM [10]: 88%
remaining binding at 1 µM [11]: 81%
